Starred links: 1 amine or outer side, 2 acyl side, 3 side chain; linkers in the order of their positions; H or OH if unused. Positions of bridges follow the written chain, without caps; N, C: chain ends. Non-standard residues stand in square brackets, D forms with d. Residues, ends and D or L forms follow the SMILES beside them. *: point of attachment. hPhe(3,5-F2-4-CF3) = N[C@@H](CCc1cc(F)c(C(F)(F)F)c(F)c1)C(=O)O; hPhe(3-Cl-4-CF3) = N[C@@H](CCc1ccc(C(F)(F)F)c(Cl)c1)C(=O)O; NMePhe(4-Cl) = CN[C@@H](Cc1ccc(Cl)cc1)C(=O)O; NMePhe(4-Me) = CN[C@@H](Cc1ccc(C)cc1)C(=O)O; X32 = O=C(CN(CCN1CCC(F)(F)CC1)[*:1])[*:2]; NMeAla(cPent) = CN[C@@H](CC1CCCC1)C(=O)O; X22 = O=C([C@@H]1Cc2ccccc2N1[*:1])[*:2]; NMeGly(cPent) = CN[C@H](C(=O)O)C1CCCC1; Phe(3-I) = N[C@@H](Cc1cccc(I)c1)C(=O)O; Pro(4,4-F2) = O=C(O)[C@@H]1CC(F)(F)CN1; X70 = CC(C)(O)COCCN(CC(=O)[*:2])[*:1]; Phe(2-F) = N[C@@H](Cc1ccccc1F)C(=O)O; Phe(2-Me) = Cc1ccccc1C[C@H](N)C(=O)O; NMeCha = CN[C@@H](CC1CCCCC1)C(=O)O; NMeGly(cPr) = CN[C@H](C(=O)O)C1CC1; NMeChg = CN[C@H](C(=O)O)C1CCCCC1; NMeF = CN[C@@H](Cc1ccccc1)C(=O)O; NMeI = CC[C@H](C)[C@H](NC)C(=O)O; NMeD = CN[C@@H](CC(=O)O)C(=O)O; AllylGly = C=CC[C@H](N)C(=O)O; NMeL = CN[C@@H](CC(C)C)C(=O)O; hLeu = CC(C)CC[C@H](N)C(=O)O; NMeNva = CCC[C@H](NC)C(=O)O; NMeV = CN[C@H](C(=O)O)C(C)C; d(β3hA) = C[C@@H](N)CC(=O)O; NMeA = CN[C@@H](C)C(=O)O; NMeAib = CNC(C)(C)C(=O)O; Nle = CCCC[C@H](N)C(=O)O; Piperidide = C1CCN(*)CC1; Pyrrolidide = C1CCN(*)C1; Ac5c = NC1(C(=O)O)CCCC1; Aze = O=C(O)[C@@H]1CCN1; Sar = CNCC(=O)O; Propyl = CCC*
target: T1, Kras and SOS1 (biotin-tagged human Kras loaded with GDP, His-tagged human SOS1) (Homo sapiens, UniProt P01116, G12D); experiment: Protein-protein interaction inhibition between Kras and SOS1 (KrasGl2D-SOS PPI) using AlphaScreen; type: binding; details: AlphaScreen; biotin-tagged human Kras loaded with GDP, His-tagged human SOS1; read-out: KRAS G12D-SOS PPI IC50
T1 construct: made in house; host or cells: E. coli (stated for Kras only)
T1 sequence (P01116 1-188 isoform P01116-2 G12D): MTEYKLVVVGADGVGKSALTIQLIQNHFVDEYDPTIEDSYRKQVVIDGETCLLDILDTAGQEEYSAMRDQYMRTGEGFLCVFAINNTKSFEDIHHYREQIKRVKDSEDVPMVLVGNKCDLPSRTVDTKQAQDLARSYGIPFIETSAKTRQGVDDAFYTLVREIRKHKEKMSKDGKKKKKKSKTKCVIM
How it was run: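 Binding between SOS1 and Kras is detected as bead-proximity luminescence: illuminate Ni-conjugated donors (680 nm), collect 520-620 nm emission from streptavidin-conjugated acceptors; Kras carries biotin and GDP loaded after purification, SOS1 carries a His tag.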

SMILES	IC50 [nM]
CC[C@H](C)[C@@H]1NC(=O)[C@H](CC(C)C)N(C)C(=O)C[C@@H](C(=O)N2CCCCC2)N(C)C(=O)[C@H](C(C)C)N(C)C(=O)C2(CCCC2)NC(=O)[C@@H](C)NC(=O)[C@H](CCc2ccc(C(F)(F)F)c(Cl)c2)NC(=O)CN(C)C(=O)[C@H](CC2CCCCC2)N(C)C(=O)[C@@H]2CCN2C(=O)[C@H](C)N(C)C1=O [Compound 1314] ([NMeL]I[NMeA][Aze][NMeCha][Sar][hPhe(3-Cl-4-CF3)][dA][Ac5c][NMeV][NMeD]-Piperidide; lactam N-11)	90
CC[C@H](C)[C@@H]1NC(=O)[C@H](CC(C)C)N(C)C(=O)C[C@@H](C)NC(=O)[C@H](C2CC2)N(C)C(=O)C2(CCCC2)NC(=O)[C@@H]2CCCN2C(=O)[C@H](CCc2ccc(C(F)(F)F)c(Cl)c2)NC(=O)CN(C)C(=O)[C@H](CC2CCCCC2)N(C)C(=O)CN(C)C(=O)CN(C)C1=O [Compound 14] (cyclo([Ac5c][NMeGly(cPr)][d(β3hA)][NMeL]I[Sar][Sar][NMeCha][Sar][hPhe(3-Cl-4-CF3)]P))	110
CC[C@H](C)[C@@H]1NC(=O)[C@H](CC(C)C)N(C)C(=O)C[C@@H](C(=O)N(C)C)N(C)C(=O)[C@H](C2CCCC2)N(C)C(=O)[C@H](C(C)C)NC(=O)[C@H](C)N(C)C(=O)[C@H](CCc2ccc(C(F)(F)F)c(Cl)c2)NC(=O)CN(C)C(=O)[C@H](CC2CCCCC2)N(C)C(=O)[C@@H]2CCN2C(=O)[C@H](C)N(C)C1=O [Compound 102] ([NMeL]I[NMeA][Aze][NMeCha][Sar][hPhe(3-Cl-4-CF3)][NMeA]V[NMeGly(cPent)][NMeD]-NMe2; lactam N-11)	11
CC[C@H](C)[C@@H]1NC(=O)[C@H](CC(C)C)N(C)C(=O)C[C@@H](C(=O)N2CCCCC2)N(C)C(=O)[C@H](CC(C)C)NC(=O)C(C)(C)N(C)C(=O)[C@H](Cc2ccccc2C)NC(=O)[C@H](Cc2cccc(I)c2)NC(=O)CN(C)C(=O)[C@H](Cc2ccc(C)cc2)N(C)C(=O)[C@@H]2CCN2C(=O)CN(C)C1=O [Compound 335] ([NMeL]I[Sar][Aze][NMePhe(4-Me)][Sar][Phe(3-I)][Phe(2-Me)][NMeAib]L[NMeD]-Piperidide; lactam N-11)	67
CC[C@H](C)[C@@H]1NC(=O)[C@H](CC(C)C)N(C)C(=O)C[C@@H](C(=O)N2CCCCC2)N(C)C(=O)[C@H](C(C)C)N(C)C(=O)C2(CCCC2)NC(=O)[C@H](C)NC(=O)[C@H](CCc2ccc(C(F)(F)F)c(Cl)c2)NC(=O)CN(C)C(=O)[C@H](CC2CCCCC2)N(C)C(=O)[C@@H]2CCN2C(=O)[C@H](C)N(C)C1=O [Compound 1316] ([NMeL]I[NMeA][Aze][NMeCha][Sar][hPhe(3-Cl-4-CF3)]A[Ac5c][NMeV][NMeD]-Piperidide; lactam N-11)	3.2
CCC[C@H]1C(=O)N[C@@H]([C@@H](C)CC)C(=O)N(C)CC(=O)N(C)CC(=O)N(C)[C@@H](CC2CCCCC2)C(=O)N(C)CC(=O)N[C@@H](CCc2cc(F)c(C(F)(F)F)c(F)c2)C(=O)N2CC(F)(F)C[C@H]2C(=O)NC2(CCCC2)C(=O)N(C)[C@@H](C2CCCCC2)C(=O)N(C)[C@H](C(=O)N2CCCC2)CC(=O)N1C [Compound 1160] ([NMeNva]I[Sar][Sar][NMeCha][Sar][hPhe(3,5-F2-4-CF3)][Pro(4,4-F2)][Ac5c][NMeChg][NMeD]-Pyrrolidide; lactam N-11)	0.42
CC(C)C[C@@H]1NC(=O)[C@H](CC(C)C)N(C)C(=O)C[C@@H](C(=O)N2CCCCC2)N(C)C(=O)[C@H](C(C)C)N(C)C(=O)C2(CCCC2)NC(=O)[C@@H]2CCCN2C(=O)[C@H](CCc2ccc(C(F)(F)F)c(Cl)c2)NC(=O)CN(C)C(=O)[C@H](CC2CCCCC2)N(C)C(=O)[C@@H]2CCN2C(=O)[C@H](C)N(C)C1=O [Compound 1754] ([NMeL]L[NMeA][Aze][NMeCha][Sar][hPhe(3-Cl-4-CF3)]P[Ac5c][NMeV][NMeD]-Piperidide; lactam N-11)	67
CCC[C@H]1C(=O)N[C@@H]([C@@H](C)CC)C(=O)N(C)CC(=O)N(C)CC(=O)N(C)[C@@H](CC2CCCCC2)C(=O)N(C)CC(=O)N[C@@H](CCc2ccc(C(F)(F)F)c(Cl)c2)C(=O)N2CCC[C@H]2C(=O)NC2(CCCC2)C(=O)N(C)[C@@H](C2CCCCC2)C(=O)N(C)[C@H](C(=O)N2CCCC2)CC(=O)N1C [Compound 2001] ([NMeNva]I[Sar][Sar][NMeCha][Sar][hPhe(3-Cl-4-CF3)]P[Ac5c][NMeChg][NMeD]-Pyrrolidide; lactam N-11)	0.48
CC[C@H](C)[C@@H]1NC(=O)[C@H](C)N(C)C(=O)C[C@@H](C(=O)N2CCCCC2)N(C)C(=O)[C@H](C(C)C)N(C)C(=O)C2(CCCC2)NC(=O)[C@@H]2CCCN2C(=O)[C@H](CCc2ccc(C(F)(F)F)c(Cl)c2)NC(=O)CN(C)C(=O)[C@H](Cc2ccccc2)N(C)C(=O)[C@@H]2CCCN2C(=O)CN(C)C1=O [Compound 1753] ([NMeA]I[Sar]P[NMeF][Sar][hPhe(3-Cl-4-CF3)]P[Ac5c][NMeV][NMeD]-Piperidide; lactam N-11)	2.5
CC(C)CC[C@@H]1NC(=O)[C@H](CC(C)C)N(C)C(=O)C[C@@H](C(=O)N2CCCCC2)N(C)C(=O)[C@H](C2CCCCC2)N(C)C(=O)C2(CCCC2)NC(=O)[C@@H]2CCCN2C(=O)[C@H](CCc2ccc(C(F)(F)F)c(Cl)c2)NC(=O)CN(C)C(=O)[C@H](CC2CCCCC2)N(C)C(=O)CN(C)C(=O)CN(C)C1=O [Compound 1651] ([NMeL][hLeu][Sar][Sar][NMeCha][Sar][hPhe(3-Cl-4-CF3)]P[Ac5c][NMeChg][NMeD]-Piperidide; lactam N-11)	4.9
CCCOC[C@@H]1NC(=O)[C@H](CC(C)C)N(C)C(=O)C[C@@H](C(=O)N2CCCCC2)N(C)C(=O)[C@H](C2CCCCC2)N(C)C(=O)C2(CCCC2)NC(=O)[C@@H]2CCCN2C(=O)[C@H](CCc2ccc(C(F)(F)F)c(Cl)c2)NC(=O)CN(C)C(=O)[C@H](CC2CCCCC2)N(C)C(=O)CN(C)C(=O)CN(C)C1=O [Compound 1736] ([NMeL]S(Propyl)[Sar][Sar][NMeCha][Sar][hPhe(3-Cl-4-CF3)]P[Ac5c][NMeChg][NMeD]-Piperidide; lactam N-11)	4.3
CCCC[C@@H]1NC(=O)[C@H](Cc2cccc(I)c2)NC(=O)CN(C)C(=O)[C@H](CC2CCCC2)N(C)C(=O)[C@@H]2CCN2C(=O)[C@H](C)N(C)C(=O)[C@H]([C@@H](C)CC)NC(=O)[C@H](CC(C)C)N(C)C(=O)C[C@@H](C(=O)N2CCCCC2)N(C)C(=O)[C@H](CC(C)C)NC(=O)C(C)(C)N(C)C1=O [Compound 1432] ([NMeL]I[NMeA][Aze][NMeAla(cPent)][Sar][Phe(3-I)][Nle][NMeAib]L[NMeD]-Piperidide; lactam N-11)	260
CC[C@H](C)[C@@H]1NC(=O)[C@H](CC(C)C)N(C)C(=O)C[C@@H](C(=O)N(C)C)N(C)C(=O)[C@H]([C@@H](C)CC)N(C)C(=O)C2(CCCC2)NC(=O)CN(CCOCC(C)(C)O)C(=O)[C@H](CCc2ccc(C(F)(F)F)c(Cl)c2)NC(=O)CN(C)C(=O)[C@H](Cc2ccc(C)cc2)N(C)C(=O)[C@@H]2CCN2C(=O)[C@H](C)N(C)C1=O [Compound 2034] ([NMeL]I[NMeA][Aze][NMePhe(4-Me)][Sar][hPhe(3-Cl-4-CF3)][X70][Ac5c][NMeI][NMeD]-NMe2; lactam N-11)	2
CC[C@H](C)[C@@H]1NC(=O)[C@H](CC(C)C)N(C)C(=O)C[C@@H](C(=O)N2CCCCC2)N(C)C(=O)[C@H](CC(C)C)NC(=O)C(C)(C)N(C)C(=O)[C@H](Cc2ccccc2F)NC(=O)[C@H](Cc2cccc(I)c2)NC(=O)CN(C)C(=O)[C@H](Cc2ccc(C)cc2)N(C)C(=O)CN(C)C(=O)CN(C)C1=O [Compound 556] ([NMeL]I[Sar][Sar][NMePhe(4-Me)][Sar][Phe(3-I)][Phe(2-F)][NMeAib]L[NMeD]-Piperidide; lactam N-11)	30
CC[C@H](C)[C@@H]1NC(=O)[C@H](CC(C)C)N(C)C(=O)C[C@@H](C)NC(=O)[C@H](C(C)C)N(C)C(=O)C2(CCCC2)NC(=O)[C@@H]2CCCN2C(=O)[C@H](CCc2ccc(C(F)(F)F)c(Cl)c2)NC(=O)CN(C)C(=O)[C@H](CC2CCCCC2)N(C)C(=O)CN(C)C(=O)CN(CCN2CCC(F)(F)CC2)C1=O [Compound 635] (cyclo([Ac5c][NMeV][d(β3hA)][NMeL]I[X32][Sar][NMeCha][Sar][hPhe(3-Cl-4-CF3)]P))	190
C=CC[C@@H]1NC(=O)[C@H](Cc2cccc(I)c2)NC(=O)CN(C)C(=O)[C@H](Cc2ccc(Cl)cc2)N(C)C(=O)CN(C)C(=O)CN(C)C(=O)[C@H]([C@@H](C)CC)NC(=O)[C@H](CC(C)C)N(C)C(=O)C[C@@H](C(=O)N2CCCC2)N(C)C(=O)[C@H](CC(C)C)NC(=O)C(C)(C)N(C)C1=O [Compound 1431] ([NMeL]I[Sar][Sar][NMePhe(4-Cl)][Sar][Phe(3-I)][AllylGly][NMeAib]L[NMeD]-Pyrrolidide; lactam N-11)	220
CC[C@H](C)[C@@H]1NC(=O)[C@H](CC(C)C)N(C)C(=O)C[C@@H](C(=O)N2CCCCC2)N(C)C(=O)[C@H](C2CCCCC2)N(C)C(=O)C2(CCCC2)NC(=O)[C@@H]2Cc3ccccc3N2C(=O)[C@H](CCc2ccc(C(F)(F)F)c(Cl)c2)NC(=O)CN(C)C(=O)[C@H](CC2CCCCC2)N(C)C(=O)[C@@H]2CCN2C(=O)[C@H](C)N(C)C1=O [Compound 812] ([NMeL]I[NMeA][Aze][NMeCha][Sar][hPhe(3-Cl-4-CF3)][X22][Ac5c][NMeChg][NMeD]-Piperidide; lactam N-11)	36
CCCC[C@@H]1NC(=O)[C@H](Cc2cccc(I)c2)NC(=O)CN(C)C(=O)[C@H](Cc2ccc(C)cc2)N(C)C(=O)CN(C)C(=O)CN(C)C(=O)[C@H]([C@@H](C)CC)NC(=O)[C@H](CC(C)C)N(C)C(=O)C[C@@H](C(=O)N2CCCCC2)N(C)C(=O)[C@H](CC(C)C)NC(=O)[C@H](C)N(C)C1=O [Compound 232] ([NMeL]I[Sar][Sar][NMePhe(4-Me)][Sar][Phe(3-I)][Nle][NMeA]L[NMeD]-Piperidide; lactam N-11)	20
